The text below walks through data of publication PMC6747015, “Structure–function study of a novel inhibitor of the casein kinase 1 family in Arabidopsis thaliana” (Plant Direct, 2019).

For one assay, the target named is T1, CKL13 (AT1G04440) (Arabidopsis thaliana, UniProt Q5XF24).
T1 construct: from tissue; host or cells: Arabidopsis seedlings, two weeks old
Briefly: AMI‐329 bead binding with AMI‐331 competitor, CKL13. How it is done:
Screening for proteins bound to AMI‐329 beads was done by a method similar to what has previously been described (Uehara et al., 2019). Briefly, two‐week‐old seedlings grown under LD conditions were harvested at time points ZT2, ZT6, ZT9, and ZT17, and stored at −80°C. Proteins from the frozen plant samples were incubated with 0, 5, or 50 µM of AMI‐331 at 4°C for 30 min with rotary mixing. Two technical replicates were used for each experiment. PBS‐washed AMI‐329 beads were added to the protein samples and gently rotated at 4°C for 1 hr. AMI‐329 bead resins were washed with bead buffer (Uehara et al., 2019) six times. The washed resins were suspended in SDS sample buffer and boiled for 8 min. Protein samples were in‐gel‐digested as previously described (Uehara et al., 2019). Peptides were analyzed with a Q Exactive hybrid quadrupole‐orbitrap mass spectrometer (Thermo Fisher Scientific), as described previously (Uehara et al., 2019). […]
However, another possible mechanism for the strong AMI‐331 biological activity in vivo is that it targets proteins other than the CK1 family for period lengthening. […] It is noteworthy that kinase AT4G08800 is very similar to the CKL family, but the ATP‐binding pocket of mammalian CK1 as determined by its crystal structure (Shinohara et al., 2017) was absent from AT4G08800, as shown in an Araport 11 model (https://www.araport.org). […]

For a further assay, the system named is PRR5 and TOC1. Description: PRR5 and TOC1 fusion protein accumulation by Western blotting. Format: in vivo, Arabidopsis. How it is done: Four‐day‐old seedlings grown under 12‐hr light/12‐hr dark (LD) conditions were transferred into a 96‐well plate with a dropper. Seedlings were treated with 20 µl of MS liquid containing 2% sucrose and AMI‐331 at 2, 10, or 50 µM with a final concentration of 5% (v/v) DMSO. As a control experiment, MS containing 2% sucrose and 5% DMSO was used to treat the seedlings. Seedlings were kept under constant light (L) or constant dark (D) for 24 hr, harvested, and kept frozen until proteins were extracted. Frozen samples were crushed with zirconia beads (Tomy ZB‐50) in a Tissue Lyser II (Qiagen). Detection of PRR5‐ and TOC1‐fusion proteins was performed using a 10%–20% gradient acrylamide gel (198‐15041, Wako) as previously described (Nakamichi et al., 2012). Anti‐FLAG antibody (F3165, Sigma) and anti‐VP antibody (ab4808, Abcam) were used to detect FLAG‐fusion and VP‐fusion proteins, respectively.
It had previously been shown that CKL4 phosphorylates PSEUDO‐RESPONSE REGULATOR 5 (PRR5), a clock‐associated transcription factor in vitro, and that treatment with the CK1 inhibitor PHA767491 results in over‐accumulation of PRR5 in vivo (Uehara et al., 2019). As a further test of whether the period‐lengthening activity of AMI‐331 is related to the inhibition of CK1 in vivo, we measured the amounts of PRR5 in plants treated with AMI‐331. Seedlings expressing fusion protein PRR5‐FLAG under control of the cauliflower mosaic virus 35S promoter (35Spro:PRR5‐FLAG) were grown under constant light conditions for 4 days, treated with AMI‐331, and kept constantly in the dark for one day. In control experiments (i.e., without AMI‐331), PRR5‐FLAG protein amounts were lower under dark compared to light conditions, due to ZTL‐dependent degradation, as described in previously (Fujiwara et al., 2008; Kiba, Henriques, Sakakibara, & Chua, 2007). […] Since PHA767491 treatment also attenuates degradation of TIMING OF CAB EXPRESSION 1 (TOC1, also called as PRR1) under dark conditions (Uehara et al., 2019), we tested whether AMI‐331 affects TOC1 protein accumulation in vivo. TOC1 amounts were higher in AMI‐331‐treated plants (Figures 3c, S2).
In general terms: In western blotting, separated proteins are transferred to a membrane and probed.

The subject of another assay is CPK family. Briefly: AMI‐329 bead binding with AMI‐331 competitor, CPK family. Also noted: species or system Arabidopsis thaliana. As to the method:
Screening for proteins bound to AMI‐329 beads was done by a method similar to what has previously been described (Uehara et al., 2019). Briefly, two‐week‐old seedlings grown under LD conditions were harvested at time points ZT2, ZT6, ZT9, and ZT17, and stored at −80°C. Proteins from the frozen plant samples were incubated with 0, 5, or 50 µM of AMI‐331 at 4°C for 30 min with rotary mixing. Two technical replicates were used for each experiment. PBS‐washed AMI‐329 beads were added to the protein samples and gently rotated at 4°C for 1 hr. AMI‐329 bead resins were washed with bead buffer (Uehara et al., 2019) six times. The washed resins were suspended in SDS sample buffer and boiled for 8 min. Protein samples were in‐gel‐digested as previously described (Uehara et al., 2019). Peptides were analyzed with a Q Exactive hybrid quadrupole‐orbitrap mass spectrometer (Thermo Fisher Scientific), as described previously (Uehara et al., 2019). MS/MS spectra were interpreted, and peak lists were generated using Proteome Discoverer 2.0.0.802 (Thermo Fisher Scientific). Searches were performed using SEQUEST (Thermo Fisher Scientific) against the Arabidopsis thaliana (TAIR TaxID = 3,702) peptide sequence database. […]
To examine other potential targets of AMI‐331, we analyzed the spectra for PHA767491 target proteins (Uehara et al., 2019). […]

T1 sequence (Q5XF24 whole entry): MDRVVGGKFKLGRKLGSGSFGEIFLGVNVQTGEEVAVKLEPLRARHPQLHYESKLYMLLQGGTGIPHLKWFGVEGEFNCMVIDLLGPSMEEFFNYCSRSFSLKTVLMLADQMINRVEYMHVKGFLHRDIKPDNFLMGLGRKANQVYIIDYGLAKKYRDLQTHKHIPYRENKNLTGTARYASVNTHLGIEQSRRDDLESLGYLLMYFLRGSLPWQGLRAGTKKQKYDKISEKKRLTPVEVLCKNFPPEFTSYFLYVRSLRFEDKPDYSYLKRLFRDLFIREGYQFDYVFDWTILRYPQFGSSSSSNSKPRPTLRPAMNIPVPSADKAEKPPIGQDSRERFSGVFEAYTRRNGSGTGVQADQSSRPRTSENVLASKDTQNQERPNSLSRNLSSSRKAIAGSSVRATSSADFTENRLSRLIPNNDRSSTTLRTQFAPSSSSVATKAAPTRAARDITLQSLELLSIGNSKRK

Consider `C#CCn1c2c(c(Br)c1-c1ccncc1)C(=O)NCC2.Cl` [AMI‐331], for which the “Spectra (PSMs) AMI‐329 beads bound” value on CKL13 (AT1G04440) (competitor AMI‐331 5 µM) and on CKL13 (AT1G04440) (competitor AMI‐331 50 µM) was 0 PSMs throughout. Also, the “PRR5‐FLAG protein amount” value in the assay on PRR5 and TOC1 (35Spro:PRR5‐FLAG seedlings, dark conditions) is recorded as “over‐accumulation of PRR5‐FLAG”. Besides, the “PRR5‐VP protein amount” value in the assay on PRR5 and TOC1 (35Spro:PRR5‐VP seedlings, dose‐dependent) was “accumulation of PRR5‐VP”. For the same compound, in the assay on PRR5 and TOC1 (35Spro:TOC1‐VP seedlings), the TOC1 protein amount entry is recorded as “higher”. Also, the “Effective concentration for increasing PRR5 and TOC1, times lower than required for PHA767491” value in the assay with PRR5 and TOC1 (in vivo) is reported as 10–50 times. For the same compound, the “Effective concentrations for PRR5 or TOC1 accumulation” value in the assay with PRR5 and TOC1 (seedlings, 24 hr in the dark) fell in the range of 10 to 50 µM. In the assay with CPK family, the “Target status from enrichment in 0 µM versus 5 or 50 µM samples” value is recorded as “not a target”.
